According to patent publication US4029688A, “Carbamic pesticidal compositions” (priority 1974, dated 1977):
Converted amounts (≈) assume the structure as drawn.

How the values were obtained:
[1] = Peroral toxicity to mammals (rat); details: in vivo, po, Table II
Experimental: Certain of these compositions were also evaluated to determine their peroral toxicity to mammals. The animal selected for this experiment was the rat. The test results obtained are expressed in terms of the number of milligrams of composition per kilogram of weight of the animal required to achieve a mortality rate of 50 percent (LD50).

[2] = tested on: house flies (Musca domestica, L.); assay: Fly Bait Test; assay type: in vivo; details: Musca domestica; Table II; read-out: Housefly LD50
Experimental: (§1) Suspensions of the test compounds were prepared by dissolving one gram of compound in 50 milliliters of acetone in which had been dissolved 0.1 gram (10 percent of the weight of compound) of an alkylphenoxy polyethoxyethanol surfactant, as an emulsifying or dispersing agent. The resulting solution was mixed into 150 milliliters of water to give roughly 200 milliliters of a suspension containing the compound in finely divided form. The thus-prepared stock suspension contained 0.5 percent by weight of compound. The test concentrations in parts per million by weight employed in the tests described hereinbelow were obtained by appropriate dilutions of the stock suspension with water. The test procedures were as follows:
Four to six day old adult house flies (Musca domestica, L.), reared according to the specifications of the Chemical Specialties Manufacturing Association (Blue Book, McNair-Dorland Co., N. Y. 1954; pages 243-244, 261) under controlled conditions of 80°±5° F. and 50±5 percent relative humidity, were the test insects. The flies were immobilized by anesthetizing with carbon dioxide and twenty-five immobilized individuals, males and females, were transferred to a cage consisting of a standard food strainer about five inches in diameter which was inverted over a wrapping-paper-covered surface. The test compounds were formulated by diluting the stock suspension with a 10 percent (by weight) sugar solution to give a suspension containing 500 parts of test compound per million parts of final formulation, by weight. Ten milliliters of the test formulation were added to a souffle cup containing a one-inch square of an absorbent cotton pad. This bait cup was introduced and centered on the blotting paper under the food strainer prior to admitting the anesthetized flies. The caged flies were allowed to feed on the bait for twenty-four hours, at a temperature of 80°±5° F. and the relative humidity of 50±5 percent.
(§2) In the tests described above, the pesticidal activity of the compounds against aphid, mite, Southern Armyworm, Bean Beetle, house fly and nematode was rated as follows:
(§3) Comparison tests were conducted to assess the biological and chemical properties of certain representative species of the claimed invention in relation to their corresponding N-methyl carbamate compositions. The test procedures described above were employed in these experiments in order to determine the LD50 (number of parts per million of active ingredients required to achieve fifty percent mortality of the insects tested) for each of the compositions tested. In the case of the aphid and mite tests a side by side comparison was made of the N-methyl carbamate composition versus the corresponding perhalomethylsulfenyl derivative.

[3] = tested on: two-spotted mite (Tetranychus urticae Koch); assay: Mite Foliage Spray Test; assay type: in vivo; details: Tetranychus urticae, foliar; Table II, side by side comparison; read-out: Mites Spray LD50
Experimental: as §1
Adults and numphal stages of the two-spotted mite (Tetranychus urticae Koch), reared on Tendergreen bean plants at 80±5 percent relative humidity, were the test organisms. Infested leaves from a stock culture were placed on the primary leaves of two bean plants six to eight inches in height, growing in a 21/2 inch clay pot. 150 -200 Mites, a sufficient number for testing, transferred from the excised leaves to the fresh plants in a period of twenty-four hours. Following the twenty-four hour transfer period, the excised leaves were removed from the infested plants. The test compounds were formulated by diluting the stock suspension with water to give a suspension containing 500 parts of test compound per million parts of final formulation. The potted plants (one pot per compound) were placed on a revolving turntable and sprayed with 100-110 milliliters of test compound formulation by use of a DeVilbiss spray gun set at 40 psig. air pressure. This application, which lasted 25 seconds, was sufficient to wet the plants to run-off. As a control, 100-110 milliliters of a water solution containing acetone and emulsifier in the same concentrations as the test compound formulation, but containing no test compound, were also sprayed on infested plants. The sprayed plants were held at 80±5 percent relative humidity for six days, after which a mortality count of motile forms was made. Microscopic examination for motile forms was made on the leaves of the test plants. Any individual which was capable of locomotion upon prodding was considered living.
as §2, §3

[4] = tested on: Mexican bean beetle (Epilachna varivestis, Muls.); assay: Mexican Bean Beetle Leaf Spray Test; assay type: in vivo; details: Epilachna varivestis; Table II; read-out: Beetle LD50
Experimental: as §1
Fourth instar larvae of the Mexican bean beetle (Epilachna varivestis, Muls.), reared on Tendergreen bean plants at a temperature of 80°±5° F. and 50±5 percent relative humidity, were the test insects.
The test compounds were formulated by diluting the stock suspension with water to give a suspension containing 500 parts of test compound per million parts of final formulation. Potted Tendergreen bean plants of standard height and age were placed on a revolving turntable and sprayed with 100-110 milliliters of test compound formulation by use of a DeVilbiss spray gun set at 10 psig air pressure. This application, which lasted 25 seconds, was sufficient to wet plants to run-off. As a control, 100-110 milliliters of a water-acetone-emulsifier solution containing no test compound were also sprayed on infested plants. When dry, the paired leaves were separated and each was placed in a 9 centimeter Petri dish lined with moistened filter paper. Five randomly selected larvae were introduced into each dish, and the dishes were closed. The closed dishes were labeled and held at a temperature of 80°±5° F. for three days. Although the larvae could easily consume the leaf within 24 to 48 hours, no more food was added. Larvae which were unable to move the length of the body, even upon stimulation, were considered dead.
as §2, §3

[5] = tested on: southern armyworm (Prodenia eridania, (Cram.)); assay: Southern Armyworm Leaf Spray Test; assay type: in vivo; details: Spodoptera eridania; Table II; read-out: Armyworm LD50
Experimental: as §1
Larvae of the southern armyworm (Prodenia eridania, (Cram.)), reared on Tendergreen bean plants at a temperature of 80°±5° F. and a relative humidity of 50±5 percent, constituted the test insects.
The test compounds were formulated by diluting the stock suspension with water to give a suspension containing 500 parts of test compound per million parts of final formulation. Potted Tendergreen bean plants of standard height and age were placed on a revolving turntable and sprayed with 100-110 milliliters of test compound formulation by use of a DeVilbiss spray gun set at 10 psig air pressure. This application, which lasted 25 seconds, was sufficient to wet plants to run-off. As a control, 100-110 milliliters of a water-acetone-emulsifier solution containing no test compound were also sprayed on infested plants. When dry, the paired leaves were separated and each one was placed in a 9 centimeter Petri dish lined with moistened filter paper. Five randomly selected larvae were introduced into each dish and the dishes were closed. The closed dishes were labeled and held at 80-85° F. for three days. Although the larvae could easily consume the whole leaf within twenty-four hours, no more food was added. Larvae which were unable to move the length of the body, even upon stimulation by prodding, were considered dead. Percent mortality was recorded for various concentration levels.
as §2, §3

Chemical stability = assay type: physicochemical; details: Table II
[6] = tested on: bean aphid (Aphis fabae Scop.); assay: Bean Aphid Foliage Spray Test; assay type: in vivo; details: Aphis fabae, foliar; Table II, side by side comparison; read-out: Aphids LD50
Experimental: as §1
Adults and nymphal stages of the bean aphid (Aphis fabae Scop.) reared on potted dwarf nasturtium plants at 65°-70° F. and 50-70 percent relative humidity, constituted the test insects. For testing purposes, the number of aphids per pot was standardized to 100-150 by trimming plants containing excess aphids.
The test compounds were formulated by diluting the stock suspension with water to give a suspension containing 500 parts of test compound per million parts of final formulation.
The potted plants (one pot per compound tested) infested with 100-150 aphids, were placed on a revolving turntable and sprayed with 100-110 milliliters of test compound formulation by use of a DeVilbiss spray gun set at 40 psig. air pressure. This application, which lasted 25 seconds, was sufficient to wet the plants to run-off. As a control, 100-110 milliliters of a water-acetone-emulsifier solution containing no test compound were also sprayed on infested plants. After spraying, the pots were placed on their sides on a sheet of white standard mimeograph paper which had been previously ruled to facilitate counting. Temperature and humidity in the test room during the 24 hour holding period were 65°-70° F. and 50-70 percent, respectively. Aphids which fell onto the paper and were unable to remain standing after being uprighted were considered dead. Aphids remaining on the plants were observed closely for movement and those which were unable to move the length of the body upon stimulation by prodding were considered dead. Percent mortality was recorded for various concentration levels.
as §2, §3

Structure (SMILES) | LD50 [1] [mg/kg] | LC50 [2] [µg/mL] | LC50 [3] [µg/mL] | LC50 [4] [µg/mL] | LC50 [5] [µg/mL] | Stability (Chemical stability) | LC50 [6] [µg/mL]
CNC(=O)ON=CC(C)(C)C#N [drawing 22 R=H, X=CN, reference compound] | 9.5 | 3 (≈ 17.7 µM) | 40 (≈ 236 µM) | 65 (≈ 384 µM) | 55 (≈ 325 µM) | unstable | 12 (≈ 70.9 µM)
CNC(=O)ON=CC(C)(C)[N+](=O)[O-] [drawing 22 R=H, X=NO2, reference compound] | 4 | 3 (≈ 15.9 µM) | 32 (≈ 169 µM) | 80 (≈ 423 µM) | 55 (≈ 291 µM) | unstable | 6 (≈ 31.7 µM)
CN(SC(F)(F)F)C(=O)ON=CC(C)(C)C#N [drawing 22 R=SCF3, X=CN, 2-Methyl-2-cyanopropionaldehyde O-(N-methyl-N-trifluoromethanesulfenylcarbamoyl)oxime] | – | 14 (≈ 52 µM) | 90 (≈ 334 µM) | 40 (≈ 149 µM) | 300 (≈ 1110 µM) | stable | 38 (≈ 141 µM)
CNC(=O)ON=C(C)SCCC#N [drawing 23 R=H, reference compound] | 7.7 | 2 (≈ 9.94 µM) | 8 (≈ 39.8 µM) | 25 (≈ 124 µM) | 5 (≈ 24.8 µM) | stable | 8 (≈ 39.8 µM)
